Assay results: patent publication US9765018B2, “IDO inhibitors” (BRISTOL-MYERS SQUIBB COMPANY, priority 2013, dated 2017)

Legend:
IDO [1] = molecular target: T1, IDO (Homo sapiens (Human), UniProt P14902); assay: Kynurenine assay in IFN-γ-stimulated Hela cells; type: cell-based; conditions: 20 h, read-out: Hela Kyurenine (IC50)
Method in brief: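 Kynurenine in supernatant is read at 490 nm after Ehrlich reagent (10 min RT), following TCA stop and 30 min at 50° C hydrolysis. Before that, Hela cells in phenol red-free RPMI/10% FBS were co-treated 20 h at 37° C with 100 ng/mL IFN-γ and compound (30 μM top, 3-fold series to 1.5 nM).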

IDO [2] = molecular target: T1, IDO; assay: LLE_IDO_ABS_DR (IDO assay, method not described)

T1 sequence (P14902 whole entry): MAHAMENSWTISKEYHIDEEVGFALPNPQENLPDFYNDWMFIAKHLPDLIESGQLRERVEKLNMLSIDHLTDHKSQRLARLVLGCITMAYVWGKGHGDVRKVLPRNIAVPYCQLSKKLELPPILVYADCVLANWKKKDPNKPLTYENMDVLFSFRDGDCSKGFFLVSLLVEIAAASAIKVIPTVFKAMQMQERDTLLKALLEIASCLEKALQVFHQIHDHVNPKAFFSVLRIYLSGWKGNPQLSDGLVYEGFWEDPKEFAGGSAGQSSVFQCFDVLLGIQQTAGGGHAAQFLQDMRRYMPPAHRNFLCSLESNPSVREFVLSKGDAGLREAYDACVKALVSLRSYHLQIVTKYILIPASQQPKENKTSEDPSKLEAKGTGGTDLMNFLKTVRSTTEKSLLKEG

Compound	IC50 (IDO [1])	IC50 (IDO [2])
COc1ccc(-c2ccc(Oc3ccccc3C(C)(C)C)c(NC(=O)Nc3cccc(Cl)c3Cl)c2)cc1C(=O)O [Example 81, 4′-(2-(tert-butyl)phenoxy)-3′-(3-(2,3-dichlorophenyl)ureido)-4-methoxy-[1,1′-biphenyl]-3-carboxylic acid]	130 nM	320 nM
COc1ccc(-c2ccc(Oc3cccc4c3CCC4)c(NC(=O)Nc3cccc(C)c3)c2)cc1C(=O)O [Example 144, 4′-(2,3-dihydro-1H-inden-4-yloxy)-4-methoxy-3′-(3-m-tolylureido)biphenyl-3-carboxylic acid]	150 nM	510 nM
Cc1ccc(NC(=O)Nc2cc(-c3cccc(Cl)c3C(=O)O)ccc2Oc2ccccc2C(C)(C)C)cc1 [Example 174, 4′-(2-tert-butylphenoxy)-3-chloro-3′-(3-p-tolylureido)biphenyl-2-carboxylic acid]	280 nM	320 nM
COc1ccc(-c2ccc(Oc3cccc4c3OC(C)(C)C4)c(NC(=O)Nc3cccc(C)c3)c2)cc1C(=O)O [Example 140, 4′-(2,2-dimethyl-2,3-dihydrobenzofuran-7-yloxy)-4-methoxy-3′-(3-m-tolylureido)biphenyl-3-carboxylic acid]	970 nM	3850 nM
CC(C)(C)c1ccccc1Oc1ccc(-c2cccc(Cl)c2C(=O)O)cc1NC(=O)Nc1ccccc1Cl [Example 172, 4′-(2-tert-butylphenoxy)-3-chloro-3′-(3-(2-chlorophenyl)ureido)biphenyl-2-carboxylic acid]	1280 nM	1920 nM
Cc1ccc(NC(=O)Nc2cc(-c3ccc(F)cc3C(=O)O)ccc2Oc2ccccc2C(C)(C)C)cc1 [Example 170, 4′-(2-tert-butylphenoxy)-4-fluoro-3′-(3-p-tolylureido)biphenyl-2-carboxylic acid]	810 nM	2230 nM
Cc1ccccc1NC(=O)Nc1cc(-c2cccc(F)c2C(=O)O)ccc1Oc1ccccc1C(C)(C)C [Example 175, 4′-(2-tert-butylphenoxy)-3-fluoro-3′-(3-o-tolylureido)biphenyl-2-carboxylic acid]	1480 nM	2580 nM
COc1ccc(-c2ccc(Oc3ccccc3C(C)C)c(NC(=O)Nc3ccccc3Cl)c2)cc1C(=O)O [Example 62, 3′-(3-(2-chlorophenyl)ureido)-4′-(2-isopropylphenoxy)-4-methoxybiphenyl-3-carboxylic acid]	140 nM	530 nM
COc1ccc(-c2ccc(Oc3ccccc3C(C)(C)C)c(NC(=O)Nc3ccc(C)cc3C)c2)cc1C(=O)O [Example 94, 4′-(2-(tert-butyl)phenoxy)-3′-(3-(2,4-dimethylphenyl)ureido)-4-methoxy-[1,1′-biphenyl]-3-carboxylic acid]	170 nM	3060 nM
COc1ccc(-c2ccc(Oc3cccc4c3CCCC4)c(NC(=O)Nc3ccc(F)cc3F)c2)cc1C(=O)O [Example 154, 3′-(3-(2,4-difluorophenyl)ureido)-4-methoxy-4′-(5,6,7,8-tetrahydronaphthalen-1-yloxy)biphenyl-3-carboxylic acid]	140 nM	540 nM
CCCc1ccccc1Oc1ccc(-c2ccc(OC)c(C(=O)O)c2)cc1NC(=O)Nc1ccccc1C [Example 75, 4-methoxy-4′-(2-propylphenoxy)-3′-(3-o-tolylureido)biphenyl-3-carboxylic acid]	370 nM	550 nM
COc1ccc(-c2ccc(Oc3ccccc3C(C)(C)C)c(NC(=O)Nc3ccc(C(F)(F)F)cc3)c2)cc1C(=O)O [Example 43, 4′-(2-tert-butylphenoxy)-4-methoxy-3′-(3-(4-(trifluoromethyl)phenyl)ureido)biphenyl-3-carboxylic acid]	440 nM	10000 nM
COc1ccc(-c2ccc(Oc3ccccc3C(C)C)c(NC(=O)Nc3cccc(C)c3)c2)cc1C(=O)O [Example 65, 4′-(2-isopropylphenoxy)-4-methoxy-3′-(3-m-tolylureido)biphenyl-3-carboxylic acid]	200 nM	630 nM
Cc1ccc(NC(=O)Nc2cc(-c3cc(Cl)ccc3C(=O)O)ccc2Oc2ccccc2C(C)(C)C)cc1 [Example 168, 4′-(2-tert-butylphenoxy)-5-chloro-3′-(3-p-tolylureido)biphenyl-2-carboxylic acid]	240 nM	660 nM
CCCOc1c(C/C=C/c2ccccc2)cc(-c2ccccc2-c2nnn[nH]2)cc1NC(=O)Nc1ccccc1F [Example 38, (E)-1-(5-Cinnamyl-4-propoxy-2′-(1H-tetrazol-5-yl)biphenyl-3-yl)-3-(2-fluorophenyl)urea]	–	210 nM
Cc1ccc(NC(=O)Nc2cc(-c3cc(F)ccc3C(=O)O)ccc2OC(CCC(F)(F)F)c2ccccc2Cl)cc1 (stereo not drawn) [Example 267, 4′-(1-(2-Chlorophenyl)-4,4,4-trifluorobutoxy)-5-fluoro-3′-(3-(p-tolyl)ureido)-[1,1′-biphenyl]-2-carboxylic acid]	–	390 nM
CCCOc1c(/C=C/C=C(F)F)cc(-c2cc(F)ccc2C(=O)O)cc1NC(=O)Nc1ccc(C)cc1 [Example 33, (E)-3′-(4,4-Difluorobuta-1,3-dien-1-yl)-5-fluoro-4′-propoxy-5′-(3-(p-tolyl)ureido)-[1,1′-biphenyl]-2-carboxylic acid]	–	110 nM
C/C=C/Cc1cc(-c2cc(F)ccc2C(=O)O)cc(NC(=O)Nc2ccc(C)cc2)c1OCc1ccccc1 [Example 27, (E)-4′-(Benzyloxy)-3′-(but-2-en-1-yl)-5-fluoro-5′-(3-(p-tolyl)ureido)-[1,1′-biphenyl]-2-carboxylic acid]	–	850 nM
CCCC(CCC)Oc1ccc(-c2ccccc2-c2nn[nH]n2)cc1NC(=O)Nc1ccc(C)cc1 [Example 13, 1-(4-(Heptan-4-yloxy)-2′-(1H-tetrazol-5-yl)-[1,1′-biphenyl]-3-yl)-3-(p-tolyl)urea]	–	30 nM
CCCCc1cc(-c2cc(F)ccc2C(=O)O)cc(NC(=O)Nc2ccc(C)cc2)c1OCCC [Example 24]	–	80 nM
CCCOc1c(CCC)cc(-c2ccccc2C(=O)O)cc1NC(=O)Nc1ccc(C)cc1 [Example 17, 4′-Propoxy-3′-propyl-5′-(3-(p-tolyl)ureido)-[1,1′-biphenyl]-2-carboxylic acid]	–	200 nM
CCCOc1c(CCCc2ccccc2)cc(-c2ccccc2-c2nnn[nH]2)cc1NC(=O)Nc1ccc(C)cc1 [Example 37, 1-(5-(3-Phenylpropyl)-4-propoxy-2′-(1H-tetrazol-5-yl)biphenyl-3-yl)-3-p-tolylurea]	–	130 nM

Next, values leading:

IC50 (IDO [1])	IC50 (IDO [2])	Compound
870 nM	1830 nM	O=C(Nc1ccccc1F)Nc1cc(-c2ccccc2-c2nnn[nH]2)ccc1Oc1cccc2c1CCCC2 [Example 188, 1-(2-fluorophenyl)-3-(4-(5,6,7,8-tetrahydronaphthalen-1-yloxy)-2′-(1H-tetrazol-5-yl)biphenyl-3-yl)urea]
930 nM	2560 nM	Cc1cccc(NC(=O)Nc2cc(-c3ccc(C(=O)O)c(Cl)c3)ccc2Oc2ccccc2C(C)(C)C)c1 [Example 213, 4′-(2-tert-butylphenoxy)-3-chloro-3′-(3-m-tolylureido) biphenyl-4-carboxylic acid]
760 nM	1110 nM	COc1ccc(-c2cnc(Oc3ccccc3C(C)(C)C)c(NC(=O)Nc3ccccc3Cl)c2)cc1C(=O)O [Example 336]
250 nM	1160 nM	COc1ccc(-c2ccc(Oc3ccccc3C(C)(C)C)c(NC(=O)Nc3ccccc3C)c2)c(-c2nnn[nH]2)c1 [Example 193, 1-(4-(2-tert-butylphenoxy)-4′-methoxy-2′-(1H-tetrazol-5-yl)biphenyl-3-yl)-3-o-tolylurea]
860 nM	2330 nM	Cc1ccccc1NC(=O)Nc1cc(-c2ccccc2-c2nnn[nH]2)ccc1Oc1cccc2c1CCCC2 [Example 187, 1-(4-(5,6,7,8-tetrahydronaphthalen-1-yloxy)-2′-(1H-tetrazol-5-yl)biphenyl-3-yl)-3-o-tolylurea]
–	200 nM	Cc1ccc(NC(=O)Nc2cc(-c3cc(F)ccc3C(=O)O)ccc2OC(CCC(F)(F)F)c2ccc(Cl)cc2)cc1 (stereo not drawn) [Example 311]
–	470 nM	CCCC(CCC)Oc1c(Br)cc(-c2ccccc2-c2nnn[nH]2)cc1NC(=O)Nc1ccc(C)cc1 [Example 286]
–	100 nM	CCCCC(Oc1ccc(-c2ccccc2-c2nnn[nH]2)cc1NC(=O)Nc1ccc(C)cc1)C1CCCCC1 (stereo not drawn) [Example 272]
–	5450 nM	CCCC(Oc1ccc(-c2cc(F)ccc2C(=O)O)cc1NC(=O)Nc1ccc(C)cc1)c1ccccc1Cl (stereo not drawn) [Example 306]
–	1100 nM	CCCCC(Oc1ccc(-c2cc(F)ccc2C(=O)O)cc1NC(=O)Nc1ccc(C)cc1)C1CCCCC1 (stereo not drawn) [Example 269]
–	1720 nM	Cc1ccc(NC(=O)Nc2cc(-c3ccccc3-c3nnn[nH]3)ccc2OC(CCC(F)(F)F)c2ccccc2)cc1 (stereo not drawn) [Example 310]
–	520 nM	Cc1ccc(NC(=O)Nc2cc(-c3ccccc3C(=O)O)ccc2OCc2ccccc2)cc1 [Example 294]
–	320 nM	O=C(Nc1ccc(F)cc1F)Nc1cc(-c2ccccc2-c2nnn[nH]2)cc(CC2CC2)c1OCCC(F)(F)F [Example 318]
–	1380 nM	O=C(Nc1ccccc1F)Nc1cc(-c2cc(F)ccc2C(=O)O)cc(C/C=C/C(F)(F)F)c1OCCC(F)(F)F [Example 282]
–	3350 nM	C=CC(c1ccccc1)c1cc(-c2cc(F)ccc2C(=O)O)cc(NC(=O)Nc2ccc(C)cc2)c1OC1CCC(F)(F)CC1 (stereo not drawn) [Example 292]
–	40 nM	Cc1ccc(NC(=O)Nc2cc(-c3cc(F)ccc3C(=O)O)ccc2OC(CCN2CCOCC2)c2ccccc2)cc1 (stereo not drawn) [Example 307]
–	80 nM	Cc1cccc(NC(=O)Nc2cc(-c3ccccc3-c3nnn[nH]3)cc(CC3CC3)c2OCCC(F)(F)F)c1 [Example 315]
–	200 nM	Cc1ccc(NC(=O)Nc2cc(-c3ccc(F)cc3-c3nnn[nH]3)ccc2Oc2ccccc2C(C)(C)C)cc1 [Example 197, 1-(4-(2-tert-butylphenoxy)-4′-fluoro-2′-(1H-tetrazol-5-yl)biphenyl-3-yl)-3-p-tolylurea]
–	1070 nM	Cc1ccc(NC(=O)Nc2cc(-c3ccccc3-c3nnn[nH]3)cc(CC3CC3)c2OCC2CC2)cc1 [Example 324]
